Assay results as given in US8694073B2, “Predicting efficacy of psychiatric treatment” (University of Utah Research Foundation, priority 2008, dated 2014).
Several values for one entry are separate records, joined by “and”; a condition that tells them apart may be missing. Identical values can stand only once.

Experiments:
MDD subjects = assay: 4-week open T3 augmentation of SSRI, HAMD-17 depression rating; format: in vivo, human
Text: 19 depressed subjects were recruited through advertisements and clinical referrals for a treatment study at Massachusetts General Hospital between 2001 and 2003, and underwent ^31P MRS scans before and after antidepression treatment. All 19 depressed subjects were between ages of 18 and 65, and suffered from MDD, as determined by pre-antidepression treatment score of ≧16 on the HAMD-17 scale. All 19 MDD subjects had previously shown minimal or no response to treatment with an SSRI taken for ≧8 weeks, with ≧4 weeks at a stable dose (fluoxetine ≧40 mg/day, sertraline ≧100 mg/day, paroxetine ≧40 mg/day, citalopram ≧40 mg/day, escitalopram ≧20 mg/day).
The HAMD-17 scale was administered every 2 weeks.
Nonparametric Wilcoxon rank sum (Mann-Whitney U) test was used to compare baseline levels of ^31P MRS metabolites between MDD subjects and normal control subjects. Clinical outcome was defined as response to treatment (HAMD-17 reduction ≧50% during treatment).

TSH = TSH level by solid-phase radioimmunoassay before treatment and at 4-weeks follow-up; format: in vivo, human; settings: MDD subjects n=19, after 4 weeks T3; baseline TSH 1.75 ± .71

In the case of `N[C@@H](Cc1cc(I)c(Oc2ccc(O)c(I)c2)c(I)c1)C(=O)O` [T3, triiodothyronine], the “mean severity of depression HAMD-17 after 4 weeks of treatment” value (MDD subjects; MDD subjects n=19, T3 50 μg daily added to existing SSRI, baseline HAMD-17 20.3±3.6) is reported as 13.3±6.6, the “treatment responders (HAMD-17 reduction ≧50%)” value (MDD subjects; MDD subjects, T3 50 μg daily added to SSRI, 4 weeks, seven subjects) is reported as 38.9% and 36.8% and the “clinical remission (final HAMD-17<7)” value (MDD subjects; MDD subjects, T3 50 μg daily added to SSRI, 4 weeks, six subjects) is reported as 31.6%. The “Final TSH” value (TSH) was “.10 ± .24 mIU/L”.
